Experimental data published in patent publication US20250001009A1, “THERAPY FOR PROGRAMMED CELL DEATH IN A SUBJECT TRANSPLANTED WITH A DONOR LIVER CARRYING THE PNPLA3 RS738409:G VARIANT” (priority 2021, published 2025).
“Also recorded” adds a separate entry of the source.

What was measured:
[1] = test system: donor hepatocytes positive for the PNPLA3 rs738409:G variant; assay: Lipid peroxidation (C11-BODIPY / MDA) in primary human hepatocytes; format: cell-based
Experimental: To evaluate the protective effects of deferoxamine, primary human hepatocytes were treated with 100 μM deferoxamine (DFO, Sigma-Aldrich, Saint-Louis, MO) for 24 hours in suspension. To evaluate the protective effects of GSH, primary human hepatocytes on collagen-coated plates were treated with 10 μM reduced L-glutathione (GSH, G4251, Sigma-Aldrich, Saint-Louis, MO) for 48 hours. Analysis of Lipid Peroxidation: A oxidation-sensitive probe C11-BODIPY (581/591) (Invitrogen, Carlsbad, CA) was used to evaluate lipid peroxidation under a fluorescence microscope. Untreated hepatocytes were prepared using a cytocentrifuge, incubated for 30 min with 10 μM C11-BODIPY, and washed with PBS. Cultured cells were incubated with 10 μM C11-BODIPY dissolved in culture media for 30 min at 37° C. and washed with PBS. The fluorescent signal was evaluated 3 hours after induction of ferroptosis. Malondialdehyde (MDA) is a natural biproduct of lipid peroxidation and MDA quantification is used as marker for lipid peroxidation. The MDA content in primary human hepatocytes was quantified using a commercially available kit from Sigma-Aldrich (Sigma-Aldrich, Saint-Louis, MO). Cryopreserved primary human hepatocytes were pelleted and analyzed directly or were cultured for 3 hours in suspension before the analysis. […] The MDA-TBA adduct was quantified using fluorometric detection (ex/em=430 nm/590 nm).

[2] = test system: donor hepatocytes positive for the PNPLA3 rs738409:G variant; assay: Cell viability / survival (Alamar Blue) of primary human hepatocytes; format: cell-based
Experimental: To evaluate the protective effects of deferoxamine, primary human hepatocytes were treated with 100 μM deferoxamine (DFO, Sigma-Aldrich, Saint-Louis, MO) for 24 hours in suspension. To evaluate the protective effects of GSH, primary human hepatocytes on collagen-coated plates were treated with 10 μM reduced L-glutathione (GSH, G4251, Sigma-Aldrich, Saint-Louis, MO) for 48 hours. Cell Viability Measurements: Cell viability was assessed in 96-well format using Alamar Blue (Invitrogen, Carlsbad, CA) absorbance (570 nm/600 nm) measured on a synergy HTX microplate reader (Biotek, Winooski, VT) 24 hours after ferroptosis induction. Post thaw viability of primary human hepatocytes was evaluated by Trypan blue dye exclusion counting using a Countess 3 automated cell counter (Invitrogen, Carlsbad, CA).

[3] = test system: donor hepatocytes positive for the PNPLA3 rs738409:G variant; assay: Mitochondrial shape by transmission electron microscopy; format: cell-based, human; settings: in the presence of FINO2
Experimental: To evaluate the protective effects of deferoxamine, primary human hepatocytes were treated with 100 μM deferoxamine (DFO, Sigma-Aldrich, Saint-Louis, MO) for 24 hours in suspension. To evaluate the protective effects of GSH, primary human hepatocytes on collagen-coated plates were treated with 10 μM reduced L-glutathione (GSH, G4251, Sigma-Aldrich, Saint-Louis, MO) for 48 hours. Transmission electron microscopy: Human hepatocytes in suspension were briefly centrifugated and washed with PBS solution. Samples were then fixed with 2.5% glutaraldehyde over night at 4° C. Fixed samples were processed by the Center for Biologic Imaging at the University of Pittsburgh, and treated with 1% osmium tetroxide and 1% potassium ferricyanide for 1 hour at room temperature. Samples were washed with PBS and dehydrated in a graded series of ethanol solution (30%, 50%, 70%, and 90% ethanol; 10 minutes each) and three 15-minute incubations in fresh 100% ethanol. Infiltration/embedding was done with three 1-hour incubations of epon. The last change of epon was removed and beam capsules filled with resin were inverted over relevant areas of the monolayers. […] Mitochondrial shape was evaluated as published previously using ImageJ (Merrill et al. in Techniques to Investigate Mitochondrial Function in Neurons, 123:31-48. Neuromethods. Springer New York, 2017).

Structure (SMILES) | lipid peroxidation ([1]; donor hepatocytes cultured in the presence of FINO2 (50 μM)) | donor hepatocyte survival ([2]; donor hepatocytes cultured in the presence of FINO2 (50 μM), 24 hours after ferroptosis induction) | mitochondrial shape [3] | lipid peroxidation ([1]; 10 μM reduced L-glutathione, 48 hours, collagen-coated plates) | survival ([2]; 10 μM reduced L-glutathione, 48 hours, collagen-coated plates, p=0.002)
CC1(CCO)CC2(CCC(C(C)(C)C)CC2)OO1 (stereo not drawn) [FINO2, (5α,8α)-8-(1,1-dimethylethyl)-3-methyl-1,2-dioxaspiro[4.5]decane-3-ethanol, reference compound] | increased lipid peroxidation | significant reduction in donor hepatocyte survival | changed from a rod shape to a spherical shape |  | 
N[C@@H](CCC(=O)N[C@@H](CS)C(=O)NCC(=O)O)C(=O)O [GSH, reduced L-glutathione] |  |  |  | reduces lipid peroxidation; also recorded: decreased lipid peroxidation | improves cell survival; also recorded: increased survival
